The SangsterLogP compilation

Experiment: not given

Compound | logP
OC1(Cn2cncn2)CCCC1Cc1c(F)c(F)c(F)c(F)c1F (stereo not given) | 3.16
OC1(Cn2cncn2)CCCC1Cc1ccc(C(F)(F)F)cc1 (stereo not given) | 3.07
OC1(Cn2cncn2)CCCC1Cc1ccc(F)c(F)c1 (stereo not given) | 2.51
OC1(Cn2cncn2)CCCC1Cc1ccc(F)cc1 (stereo not given) | 2.39
OC1(Cn2cncn2)CCCC1Cc1ccccc1Cl (stereo not given) | 2.95
OC1(Cn2cncn2)CCCC1Cc1cccc(Cl)c1 (stereo not given) | 2.98
OC1(Cn2cncn2)CCCC1Cc1c(F)cccc1F (stereo not given) | 2.6
OC1(Cn2cncn2)CCCC1Cc1ccc(Cl)cc1Cl (stereo not given) | 3.87
OC1(Cn2cncn2)CCCC1Cc1cccc(C(F)(F)F)c1 (stereo not given) | 3.07
OC1(Cn2cncn2)CCCC1Cc1ccc(F)cc1F (stereo not given) | 2.6
OC1(Cn2cncn2)CCCC1Cc1ccc(Cl)cc1F (stereo not given) | 3.27
OC1(Cn2cncn2)CCCC1Cc1ccc(Cl)cc1 (stereo not given) | 3.11
N#Cc1ccc(CC2CCCC2(O)Cn2cncn2)cc1 (stereo not given) | 1.7

Experiment: method code SF, from DOI: 10.1021/bk-1995-0606.ch013

logP | Compound
2.71 | Cc1ccc(CC2CCCC2(O)Cn2cncn2)cc1 (stereo not given)
2.26 | OC1(Cn2cncn2)CCCC1Cc1ccccc1 (stereo not given)
3.27 | OC1(Cn2cncn2)CCCC1Cc1ccc(Br)cc1 (stereo not given)
3.97 | CC(C)(C)c1ccc(CC2CCCC2(O)Cn2cncn2)cc1 (stereo not given)
3.92 | OC1(Cn2cncn2)CCCC1Cc1ccc(-c2ccccc2)cc1 (stereo not given)

Further lines, the compound ahead of its results:

Compound | logP
CCC1CCC(Cc2ccc(Cl)cc2Cl)C1(O)Cn1cncn1 (stereo not given) | 4.78
CC1(C)CCC(Cc2ccc(Br)cc2)C1(O)Cn1cncn1 (stereo not given) | 3.99
CCC1CCC(Cc2ccc(-c3ccccc3)cc2)C1(O)Cn1cncn1 (stereo not given) | 4.83
CCCOC/C(=N\c1ccc(Cl)cc1C(F)(F)F)n1ccnc1 | 4.5
CC1(C)CCC(Cc2ccc(Cl)cc2F)C1(O)Cn1cncn1 (stereo not given) | 3.99
CCC1CCC(Cc2ccc(Br)cc2)C1(O)Cn1cncn1 (stereo not given) | 4.18
CC1(C)CCC(Cc2ccc(Cl)c(O)c2)C1(O)Cn1cncn1 (stereo not given) | 3.16
CCC1CCC(Cc2ccc(F)cc2)C1(O)Cn1cncn1 (stereo not given) | 3.3
Cc1ccc(CC2CCC(C)(C)C2(O)Cn2cncn2)cc1 (stereo not given) | 3.43
CCC1CCC(Cc2ccc(Cl)cc2)C1(O)Cn1cncn1 (stereo not given) | 4.02
CCC1CCC(Cc2ccc(C(C)(C)C)cc2)C1(O)Cn1cncn1 (stereo not given) | 4.88
CC1(C)CCC(Cc2ccc(-c3ccccc3)cc2)C1(O)Cn1cncn1 (stereo not given) | 4.64
